# According to patent US5441962A, “Method for treating hyperlipemia” (priority 1992, dated 1995):
# Structures can show the parent of a compound that is named as a salt.
# Key:
# [1] = tested on: experimental sclerosis rabbits; assay: Change of Aortic Pulse Wave Velocity (ΔPWV) in experimental sclerosis rabbits; assay type: in vivo, Male Japanese white rabbits
# From the text: (§1) In this example, the effects of the present compound on the wall of a blood vessel, a serum lipid and a blood glucose level were studied on the experimental sclerosis rabbits from the determination of the arterial sclerosis action, the assay of the components constituting the wall of the blood vessel and the transitional analysis of the damage of the blood wall with time.
# (§2) Male Japanese white rabbits (25 months age) were randomly divided into three groups. A normal diet was given to one group (called hereafter "healthy group"). The remaining two groups were fed with 100 g/day of a high α-starch, high salinity and low protein, sclerosis diet containing 0.3% cholesterol (manufactured by Funabashi Farm), simultaneously injected intramuscularly with norepinephrine (3 mg) and bred for 150 days. One group of them was called hereafter "sclerosis group". […] Every 50 days, Aortic Pulse Wave Velocity (PWV) was measured to determine a average hardness of aorta of the rabbits. After five months and just before slaughter of the rabbits, blood was drawn to determine cholesterol in blood (T-Cho), triglyceride (TG), β-lipoprotein (β-Lp), HDL choresterol and a blood glucose level. After slaughter, a fifth intercostal pars in the thoracic aorta was extracted and then subjected to formalin fixation and embedding in paraffin. Subsequently, each component of smooth muscle cell (SMC), elastin (EL), collagen (CL), glycosaminoglycan (GAGs), PAS positive substance (PAS), calcium (Ca) and cholesterol (Cho) was histochemically observed and assayed.
# PWV is increasing with the advance of growth, maturation and ageing. Thus an increase in PWV value is an indication of arterial sclerosis (see Arterial Sclerosis, vol. 8, No. 1 April 1980, pp 91-95).
# Wall of Aorta = assay: Proportion of components constituting the wall of aorta (histochemical assay, fifth intercostal pars of thoracic aorta); assay type: in vivo, Male Japanese white rabbits
# From the text: as §1, §2
# [2] = Serum lipid and blood glucose level in experimental sclerosis rabbits; assay type: in vivo, Male Japanese white rabbits; settings: rabbit, oral 3 mg once per day, after five months
# From the text: as §1, §2
# in vivo = settings: mouse, in vivo, po, average
# mice = assay: in vivo; settings: oral
# [3] = rabbit, oral 3 mg once per day, after 150 days
structure (smiles),measurement,setting,value
Cl.Cn1cc(OCC(O)CNC(C)(C)C)c2ccccc2c1=O (racemic) [(±)-4-(3-tert.-butylamino-2-hydroxypropoxy)-2-methyl-1 (2H)-isoquinolinone hydrochloride],PWV as compared with the sclerosis group,"[1]; 150 days, vs sclerosis group",significantly improved
same,"Δ PWV, 0-50 days","[1]; rabbit, sclerosis diet + norepinephrine i.m., oral capsule 3 mg once per day, 0-50 days",-0.110 m/sec
same,"Δ PWV, 51-100 days","[1]; rabbit, sclerosis diet + norepinephrine i.m., oral capsule 3 mg once per day, 51-100 days",-0.290 m/sec
same,"Δ PWV, 101-150 days","[1]; rabbit, sclerosis diet + norepinephrine i.m., oral capsule 3 mg once per day, 101-150 days",-0.890 m/sec
same,Improvement in arterial sclerosis,"Wall of Aorta; Table 2, drug administered group",remarkable improvement in arterial sclerosis
same,Proportion of PAS positive substance (PAS) in the wall of aorta,Wall of Aorta; [3],27.83 % E
same,Proportion of calcium (Ca) in the wall of aorta,Wall of Aorta; [3],1.92 % E
same,Proportion of cholesterol (Cho) in the wall of aorta,Wall of Aorta; [3],0.68 % E
same,Proportion of collagen (CL) in the wall of aorta,Wall of Aorta; [3],30.33 % E
same,Proportion of elastin (EL) in the wall of aorta,Wall of Aorta; [3],40.56 % E
same,Proportion of glycosaminoglycan (GAGs) in the wall of aorta,Wall of Aorta; [3],16.03 % E
same,Proportion of smooth muscle cell (SMC) in the wall of aorta,Wall of Aorta; [3],46.72 % E
same,Blood glucose level,[2],162.50 mg/dL
same,Cholesterol in blood (T-Cho),[2],25.25 mg/dL
same,HDL cholesterol (HDL-C),[2],15.44 mg/dL
same,Triglyceride (TG),[2],65.40 mg/dL
same,β-lipoprotein (β-Lp),[2],2.75 mg/dL
same,LD50,in vivo; female mice,1290 mg/kg
same,LD50,in vivo; male mice,1390 mg/kg
CC(C)(C)NCC(O)COc1c[nH]c(=O)c2ccccc12 (centres unmarked) [4-(3-tert.-butylamino-2-hydroxypropoxy)-1-isoquinolinonehydrochloride],LD50,in vivo; female mice,1290 mg/kg
same,LD50,in vivo; male mice,1390 mg/kg
same,"LD50, range in parentheses",mice; female mice,1063 to 1566 mg/kg
same,"LD50, range in parentheses",mice; male mice,1223 to 1587 mg/kg
